# Measurements: patent US20100130482A1, “DIA[…] DERIVATIVES AS NICOTINIC ACETYLCHOLINE RECEPTOR LIGANDS” (priority 2004, published 2010)
# Where a name gives a salt, the structure may show the parent alone.
# System: not given
# Assay: not given
# Conditions: not given
row,Compound,melting point
1,Nc1ccc(C(=O)Nc2ccc(-c3ccc(C(=O)N4CCN5CCC4CC5)o3)cc2)cc1,151 °C
2,Nc1cccc(C(=O)Nc2ccc(-c3ccc(C(=O)N4CCN5CCC4CC5)o3)cc2)c1,249 to 252 °C
3,O=C(Nc1ccc(-c2ccc(C(=O)N3CCN4CCC3CC4)o2)cc1)Nc1ccccc1F,241 °C (dec.)
4,O=C(Nc1ccc(-c2ccc(C(=O)N3CCN4CCC3CC4)o2)cc1)Nc1cccc(F)c1,230 °C
5,O=C(Nc1ccc(-c2ccc(C(=O)N3CCN4CCC3CC4)o2)cc1)Nc1ccccc1C(F)(F)F,253 °C (dec.)
6,O=C(Nc1ccc(-c2ccc(C(=O)N3CCN4CCC3CC4)o2)cc1)Nc1cccc(C(F)(F)F)c1,171 °C
7,O=C(c1ccc(-c2ccc(NC(=S)Nc3ccccc3)cc2)o1)N1CCN2CCC1CC2,171.4 to 174.7 °C
8,O=C(Nc1ccc(-c2ccc(C(=O)N3CCN4CCC3CC4)o2)cc1)Nc1ccccc1Cl,200 to 211 °C (dec.)
9,O=C(Nc1ccc(-c2ccc(C(=O)N3CCN4CCC3CC4)o2)cc1)c1ccccc1,254 °C
10,CCNC(=O)Nc1ccccc1NC(=O)Nc1ccc(-c2ccc(C(=O)N3CCN4CCC3CC4)o2)cc1 (as salt: fumaric acid salt),162.5 to 165.5 °C
11,CCNC(=O)Nc1cccc(-c2ccc(C(=O)N3CCN4CCC3CC4)o2)c1 (as salt: fumaric acid salt),158 to 161 °C
12,O=C(Nc1ccc(-c2ccc(C(=O)N3CCN4CCC3CC4)o2)cc1)c1ccncc1 (as salt: fumaric acid salt),250 to 253.5 °C
13,O=C(Nc1ccc(-c2ccc(C(=O)N3CCN4CCC3CC4)o2)cc1)Nc1ccccc1[N+](=O)[O-] (as salt: fumaric acid salt),198 to 202 °C
14,O=C(Nc1cccc(-c2ccc(C(=O)N3CCN4CCC3CC4)o2)c1)c1ccccc1 (as salt: fumaric acid salt),201 to 204 °C
15,O=C(c1ccc(-c2ccc(-n3cccc3)cc2)o1)N1CCN2CCC1CC2 (as salt: fumaric acid salt),222 °C
16,O=C(c1ccc(-c2ccc(Nc3ncccc3[N+](=O)[O-])cc2)o1)N1CCN2CCC1CC2 (as salt: fumaric acid salt),223 °C
17,"CC(=O)Nc1ccccc1NC(=O)Nc1ccc(-c2ccc(C(=O)N3CCN4CCC3CC4)o2)cc1 (as salt: fumaric acid salt) [Compound B2, 1-{4-[5-(1,4-Diaza-bicyclo[3.2.2]nonane-4-carbonyl)-furan-2-yl]-phenyl}-3-(2-acetylaminophenyl)-urea]",159 to 169 °C
18,"CCNC(=O)Nc1ccc(-c2ccc(C(=O)N3CCN4CCC3CC4)o2)cc1 (as salt: fumaric acid salt) [Compound C3, 1-{4-[5-(1,4-Diaza-bicyclo[3.2.2]nonane-4-carbonyl)-furan-2-yl]-phenyl}-3-ethyl-urea]",167 to 171 °C
19,O=C(Nc1ccc(-c2ccc(C(=O)N3CCN4CCC3CC4)o2)cc1)c1ccccc1[N+](=O)[O-] (as salt: hydrochloric acid salt),283 °C
20,O=C(Nc1ccc(-c2ccc(C(=O)N3CCN4CCC3CC4)o2)cc1)c1ccc([N+](=O)[O-])cc1 (as salt: hydrochloric acid salt),195 to 210 °C
21,O=C(Nc1ccc(-c2ccc(C(=O)N3CCN4CCC3CC4)o2)cc1)c1cccc([N+](=O)[O-])c1 (as salt: hydrochloric acid salt),> 300 °C
22,"Nc1ccccc1NC(=O)Nc1ccc(-c2ccc(C(=O)N3CCN4CCC3CC4)o2)cc1 [Compound A1, 1-{4-[5-(1,4-Diaza-bicyclo[3.2.2]nonane-4-carbonyl)-furan-2-yl]-phenyl}-3-(2-aminophenyl)-urea]",174 °C

# Target: T1, α7-subtype of nicotinic receptors (Rattus norvegicus, UniProt Q05941)
# T1 construct: Cerebral cortices from male Wistar rats (150-250 g) are homogenised; from tissue; host or cells: rat cerebral cortex membrane homogenate
# Assay: In vitro inhibition of 3H-α-bungarotoxine binding in rat brain
# Conditions: rat cerebral cortex homogenate; 3H-α-bungarotoxine 2 nM; 2 hours at 37° C.
# T1 sequence (Q05941 23-502): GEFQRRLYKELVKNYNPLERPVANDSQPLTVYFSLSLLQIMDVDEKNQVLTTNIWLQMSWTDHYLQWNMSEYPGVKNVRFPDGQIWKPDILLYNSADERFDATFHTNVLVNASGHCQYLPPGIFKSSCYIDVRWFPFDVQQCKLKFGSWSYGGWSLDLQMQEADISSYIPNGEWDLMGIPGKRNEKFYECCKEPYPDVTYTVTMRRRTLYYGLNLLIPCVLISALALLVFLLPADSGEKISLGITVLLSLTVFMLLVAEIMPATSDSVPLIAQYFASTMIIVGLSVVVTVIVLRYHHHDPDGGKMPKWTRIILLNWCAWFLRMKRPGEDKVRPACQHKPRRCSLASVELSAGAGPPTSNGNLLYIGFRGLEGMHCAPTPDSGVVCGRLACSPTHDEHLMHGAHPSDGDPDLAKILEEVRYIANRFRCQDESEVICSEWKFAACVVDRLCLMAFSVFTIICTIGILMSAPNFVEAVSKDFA
row,Compound,IC50 [nM]
1,"Nc1ccccc1NC(=O)Nc1ccc(-c2ccc(C(=O)N3CCN4CCC3CC4)o2)cc1 [Compound A1, 1-{4-[5-(1,4-Diaza-bicyclo[3.2.2]nonane-4-carbonyl)-furan-2-yl]-phenyl}-3-(2-aminophenyl)-urea]",1.2
2,"CC(=O)Nc1ccccc1NC(=O)Nc1ccc(-c2ccc(C(=O)N3CCN4CCC3CC4)o2)cc1 [Compound B2, 1-{4-[5-(1,4-Diaza-bicyclo[3.2.2]nonane-4-carbonyl)-furan-2-yl]-phenyl}-3-(2-acetylaminophenyl)-urea]",1.6
3,"CCNC(=O)Nc1ccc(-c2ccc(C(=O)N3CCN4CCC3CC4)o2)cc1 [Compound C3, 1-{4-[5-(1,4-Diaza-bicyclo[3.2.2]nonane-4-carbonyl)-furan-2-yl]-phenyl}-3-ethyl-urea]",0.56
